Experimental findings from patent US11976092B2, “RNA nanostructures, methods of making, and uses thereof” (Ohio State Innovation Foundation, priority 2018, dated 2024) are described below.

The subject of one series is KB cells. As to the kind of experiment: FITC Annexin V / PI apoptosis assay (FACS). In kind it is cell-based, Human. The following applies: 1 μM, 48 hr treatment. The protocol: FITC Annexin V Apoptosis Detection Kit (BD Pharmingen) and Caspase-3 Assay Kit (BD Pharmingen) were used as previously reported to study cell apoptosis induced by pRNA-3WJ-PTX micelle treatment. For FITC Annexin V staining assay, KB cells were seeded in 12-well plates overnight. […] The controls include Paclitaxel, pRNA-3WJ micelles, and pRNA-3WJ. According to manufacturer instructions, 48 hr after incubation with the RNA micelles, KB cells were trypsinized to single cell suspension. After two PBS washes, the cells were resuspended in 100 μL 1× Annexin V-FITC binding buffer. Then 5 μL AnnexinV-FITC and 5 μL propidium iodide (PI) were added into each sample and incubated at room temperature for 25 min. The samples were finally added to a flow tube which contained 200 μL 1× binding buffer for FACS analysis within 1 hr.

Series [1] is described as follows: Apparent hydrodynamic diameter by DLS (Zetasizer nano-ZS). The series is classed as physicochemical. The following applies: 25° C. An excerpt: The data was obtained from three independent measurements.
The nature of the next series: FIG. 31B. From the text: Table printed on a drawing sheet, FIG. 31B
The patent's description of the figure: FIGS. 31A and 31B show enzymatic stability of branched 3WJs modular RNA motifs. FIG. 31A. Serum degradation curve. FIG. 31B. Half life of 3WJs in 50% serum.
FIGS. 29A to 31B show design (FIGS. 29A and 29B), thermal stability (qPCR & TGGE, FIGS. 30A to 30C), and enzymatic stability (serum stability assay, FIGS. 31A and 31B) of branched 3WJs with different core and helix.

Consider “pRNA-3WJ: phi29 pRNA three-way junction scaffold of a3WJ, b3WJ, c3WJ (SEQ ID NO:16-18), without lipophilic and therapeutic modules (chain 1 UUGCCAUGUGUAUGUGGG; chain 2 CCCACAUACUUUGUUGAUCC; chain 3 GGAUCAAUCAUGGCAA; 2'-fluoro at CU, RNA at AG, backbone not given here)”, for which the cells undergoing apoptosis with KB cells is 3.7%. In addition, the average hydrodynamic diameter in series [1] is recorded as 7.466±1.215 nm.

Take “Phi29-Mod: 3WJ modular RNA motif, SEQ ID NOs:19-21 (chain 1 AUUCGCUGUGUGGUAGUG; chain 2 CACUACCACUUUGUCCUACG; chain 3 CGUAGGACCAGCGAAU; further chemistry not given here)”: the “t1/2” value in “FIG. 31B” was 24 h.
